{
  "source": "ChEMBL document CHEMBL5257019",
  "about": "“An Overview of Severe Acute Respiratory Syndrome-Coronavirus (SARS-CoV) 3CL Protease Inhibitors: Peptidomimetics and Small Molecule Chemotherapy” (J Med Chem, 2016)",
  "key": {"[1]": {"target": "T1, Replicase polyprotein 1ab (Severe acute respiratory syndrome coronavirus 2, UniProt P0DTD1)", "assay": "Inhibition of SARS-CoV-2 3CL protease using Dabcyl-Leu-Ala-Gln-Ala-Val-Arg-Ser-Ser-Ser-Arg-Edans as substrate"}, "Cytochrome P450 2C9": {"target": "Cytochrome P450 2C9 (Homo sapiens, UniProt P11712)", "sequence (P11712 whole entry)": "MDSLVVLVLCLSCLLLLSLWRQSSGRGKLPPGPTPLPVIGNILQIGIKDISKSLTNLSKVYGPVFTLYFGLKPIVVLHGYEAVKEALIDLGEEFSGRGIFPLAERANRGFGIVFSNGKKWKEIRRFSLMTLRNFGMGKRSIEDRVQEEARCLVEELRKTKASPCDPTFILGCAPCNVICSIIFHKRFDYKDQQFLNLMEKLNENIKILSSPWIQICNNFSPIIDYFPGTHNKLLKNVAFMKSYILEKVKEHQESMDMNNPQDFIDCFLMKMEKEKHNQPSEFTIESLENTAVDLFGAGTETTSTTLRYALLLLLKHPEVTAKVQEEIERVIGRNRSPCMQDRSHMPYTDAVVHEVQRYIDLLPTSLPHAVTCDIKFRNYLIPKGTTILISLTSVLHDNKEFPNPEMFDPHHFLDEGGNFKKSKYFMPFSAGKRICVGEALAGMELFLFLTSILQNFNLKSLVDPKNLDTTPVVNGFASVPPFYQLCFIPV", "assay": "Inhibition of CYP2C9 (unknown origin)", "assay_type": "ADME"}, "Cytochrome P450 2D6": {"target": "Cytochrome P450 2D6 (Homo sapiens, UniProt P10635)", "sequence (P10635 whole entry)": "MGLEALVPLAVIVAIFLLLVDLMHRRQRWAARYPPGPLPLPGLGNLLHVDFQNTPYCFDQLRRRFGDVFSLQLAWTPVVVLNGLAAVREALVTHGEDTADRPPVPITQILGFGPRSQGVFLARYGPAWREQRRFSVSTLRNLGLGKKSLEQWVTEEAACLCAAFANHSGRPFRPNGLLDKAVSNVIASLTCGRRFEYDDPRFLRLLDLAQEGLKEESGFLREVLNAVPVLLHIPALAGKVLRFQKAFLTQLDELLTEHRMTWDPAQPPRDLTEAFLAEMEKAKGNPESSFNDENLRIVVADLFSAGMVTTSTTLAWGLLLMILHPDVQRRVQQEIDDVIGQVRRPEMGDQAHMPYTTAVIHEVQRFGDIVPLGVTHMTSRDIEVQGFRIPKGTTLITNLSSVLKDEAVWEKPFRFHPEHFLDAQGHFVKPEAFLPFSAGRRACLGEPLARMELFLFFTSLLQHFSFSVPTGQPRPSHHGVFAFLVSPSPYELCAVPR", "assay": "Inhibition of CYP2D6 (unknown origin)", "assay_type": "ADME"}, "[2]": {"assay": "Plasma protein binding in human assessed as unbound fraction", "assay_type": "ADME"}, "Cytochrome P450 1A2": {"target": "T2, Cytochrome P450 1A2 (Homo sapiens, UniProt P05177)", "T2 sequence (P05177 whole entry)": "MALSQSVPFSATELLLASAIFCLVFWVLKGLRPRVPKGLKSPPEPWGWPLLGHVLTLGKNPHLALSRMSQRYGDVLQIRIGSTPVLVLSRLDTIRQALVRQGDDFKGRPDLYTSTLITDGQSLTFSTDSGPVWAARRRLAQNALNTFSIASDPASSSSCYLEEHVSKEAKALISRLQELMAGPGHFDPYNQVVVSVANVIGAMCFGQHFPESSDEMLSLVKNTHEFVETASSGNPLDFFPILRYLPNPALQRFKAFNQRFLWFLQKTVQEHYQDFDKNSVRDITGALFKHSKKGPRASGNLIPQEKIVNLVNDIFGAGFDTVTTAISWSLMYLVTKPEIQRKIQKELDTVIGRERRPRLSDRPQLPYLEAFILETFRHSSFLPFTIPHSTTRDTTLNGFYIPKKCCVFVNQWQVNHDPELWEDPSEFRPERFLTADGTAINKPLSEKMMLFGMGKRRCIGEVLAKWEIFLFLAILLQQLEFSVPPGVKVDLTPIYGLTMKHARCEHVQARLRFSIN", "assay": "Inhibition of CYP1A2 (unknown origin)", "assay_type": "ADME"}, "[3]": {"assay": "Plasma protein binding in rat assessed as unbound fraction", "assay_type": "ADME"}, "Cytochrome P450 3A4": {"target": "Cytochrome P450 3A4 (Homo sapiens, UniProt P08684)", "sequence (P08684 whole entry)": "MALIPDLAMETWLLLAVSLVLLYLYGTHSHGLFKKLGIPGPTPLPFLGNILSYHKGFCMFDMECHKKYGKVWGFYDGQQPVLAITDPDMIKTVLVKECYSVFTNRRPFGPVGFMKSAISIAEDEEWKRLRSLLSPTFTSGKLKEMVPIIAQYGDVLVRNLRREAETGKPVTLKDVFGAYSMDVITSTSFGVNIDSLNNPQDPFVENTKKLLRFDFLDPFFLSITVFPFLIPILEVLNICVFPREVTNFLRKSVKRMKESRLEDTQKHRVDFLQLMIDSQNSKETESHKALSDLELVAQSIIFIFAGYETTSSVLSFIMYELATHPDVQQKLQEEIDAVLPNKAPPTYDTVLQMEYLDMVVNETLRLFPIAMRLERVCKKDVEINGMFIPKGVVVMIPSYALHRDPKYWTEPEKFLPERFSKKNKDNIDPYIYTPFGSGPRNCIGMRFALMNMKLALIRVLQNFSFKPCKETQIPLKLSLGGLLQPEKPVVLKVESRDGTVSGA", "assay": "Inhibition of CYP3A4 (unknown origin)", "assay_type": "ADME"}, "[4]": {"target": "T1, Replicase polyprotein 1ab", "assay": "Inhibition of N terminal his tagged SARS-CoV-2 3CL protease by FRET assay"}, "[5]": {"target": "T1, Replicase polyprotein 1ab", "assay": "Inhibition of SARS-CoV-2 3CL protease using Dabcyl-KTSAVLQSGFRKME-Edans as substrate assessed as inhibition constant by flurogenic assay"}, "[6]": {"target": "T1, Replicase polyprotein 1ab", "assay": "Inhibition of SARS-CoV-2 3CL protease by FRET assay"}, "[7]": {"target": "Replicase polyprotein 1ab (Severe acute respiratory syndrome coronavirus 2) (UniProt P0DTD1)", "assay": "Inhibition of SARS-CoV-2 3CL protease at 100 uM relative to control"}, "[8]": {"target": "T1, Replicase polyprotein 1ab", "assay": "Inhibition of SARS-CoV-2 3CL protease using 2-aminobenzoyl-SVTLQSG-Tyr(NO2)-R as substrate"}, "[9]": {"assay": "Inhibition of SARS-CoV 3CL protease using 2-aminobenzoyl-SVTLQSG-Tyr(NO2)-R as substrate", "set-up": "species or system Severe acute respiratory syndrome-related coronavirus"}, "[10]": {"target": "Replicase polyprotein 1ab (Severe acute respiratory syndrome coronavirus 2) (UniProt P0DTD1)", "assay": "Inhibition of SARS-CoV-2 3CL protease assessed as ratio of Kinact/Ki"}},
  "data": [
    {"molecule": "O=C(O)c1ccc(/N=C/c2c(O)ccc3c2C2CCCCC2O3)cc1", "note": "(stereo not drawn)", "values": [
      {"measurement": "EC50", "setting": "[1]", "result": 23, "unit": "µM"}
    ]},
    {"molecule": "Cn1ccc(CN(C(=O)Cn2nnc3ccccc32)c2ccc(NC(=O)C3CC3)cc2)c1", "values": [
      {"measurement": "IC50", "setting": "Cytochrome P450 2C9", "result": 7.2, "unit": "µM"},
      {"measurement": "IC50", "setting": "Cytochrome P450 2D6", "result": 8.4, "unit": "µM"},
      {"measurement": "fraction unbound", "setting": "[2]", "result": 0.048},
      {"measurement": "IC50", "setting": "Cytochrome P450 1A2", "result": 7.7, "unit": "µM"},
      {"measurement": "fraction unbound", "setting": "[3]", "result": 0.106},
      {"measurement": "IC50", "setting": "Cytochrome P450 3A4", "result": 4.6, "unit": "µM"}
    ]},
    {"molecule": "O=C(Oc1cncc(Cl)c1)c1cc2ccccc2[nH]1", "values": [
      {"measurement": "IC50", "setting": "[4]", "result": 0.065, "unit": "µM"}
    ]},
    {"molecule": "O=C(On1nnc2ccccc21)c1ccc2[nH]ccc2c1", "values": [
      {"measurement": "Ki", "setting": "[5]", "result": 0.0075, "unit": "µM"}
    ]},
    {"molecule": "O=c1c(OC[C@H]2O[C@@H](O)[C@H](O)[C@@H](O)[C@H]2O)c(-c2ccc(O)c(O)c2)oc2cc(O)cc(O)c12", "values": [
      {"measurement": "IC50", "setting": "[6]", "result": 42.8, "unit": "µM"}
    ]},
    {"molecule": "CC(=O)N[C@H](C(=O)N[C@H](C(=O)N[C@@H](CC(C)C)C(=O)N[C@@H](C[C@@H]1CCNC1=O)C(=O)c1cccs1)[C@@H](C)O)C(C)C", "values": [
      {"measurement": "inhibition", "setting": "[7]", "result": 23, "unit": "%"}
    ]},
    {"molecule": "Cc1cc2cc(CN(CCc3ccccc3C)C(=O)NCc3ccccc3)c(=O)[nH]c2cc1C", "values": [
      {"measurement": "IC50", "setting": "[8]", "result": 17.2, "unit": "µM"}
    ]},
    {"molecule": "O=C(CSc1nc(C2CCCCC2)nc2ccccc12)NCc1ccco1", "values": [
      {"measurement": "IC50", "setting": "[8]", "result": 18.2, "unit": "µM"}
    ]},
    {"molecule": "CC(=O)N[C@H](C(=O)N[C@H](C(=O)N[C@@H](CC(C)C)C(=O)N[C@@H](Cc1ccccc1)C(=O)Cn1[nH]c(=O)c2ccccc2c1=O)[C@@H](C)OCc1ccccc1)C(C)C", "values": [
      {"measurement": "inhibition", "setting": "[7]", "result": 72, "unit": "%"}
    ]},
    {"molecule": "OCC1C(COCc2ccccc2)CC1n1cnc2c(Cl)ncnc21", "note": "(stereo not drawn)", "values": [
      {"measurement": "IC50", "setting": "[9]", "result": 14.5, "unit": "µM"}
    ]},
    {"molecule": "CC(C)(C)NC(=O)C(c1cccnc1)N(C(=O)c1ccco1)c1ccc(C(C)(C)C)cc1", "note": "(stereo not drawn)", "values": [
      {"measurement": "IC50", "setting": "Cytochrome P450 2C9", "result": 9.1, "unit": "µM"},
      {"measurement": "IC50", "setting": "Cytochrome P450 2D6", "result": "> 30", "unit": "µM"},
      {"measurement": "fraction unbound", "setting": "[2]", "result": 0.033},
      {"measurement": "IC50", "setting": "Cytochrome P450 1A2", "result": "> 30", "unit": "µM"},
      {"measurement": "fraction unbound", "setting": "[3]", "result": 0.026}
    ]},
    {"molecule": "CCOC(=O)[C@@H]1OC1C(=O)N(CCC(N)=O)NC(=O)[C@H](Cc1ccccc1)NC(=O)[C@H](CC(C)C)NC(=O)OCc1ccccc1", "note": "(stereo partly drawn)", "values": [
      {"measurement": "Ratio", "setting": "[10]", "result": 1900, "unit": "M/s"}
    ]},
    {"molecule": "O=C(Oc1cncc(Cl)c1)c1cccs1", "values": [
      {"measurement": "IC50", "setting": "[4]", "result": 0.5, "unit": "µM"}
    ]},
    {"molecule": "COC(=O)c1cc2c(O)cc(C(F)(F)F)cc2o1", "values": [
      {"measurement": "IC50", "setting": "[8]", "result": 4.3, "unit": "µM"}
    ]}
  ]
}
